What was measured:
U87MG EGFRvA = assay: Cell growth suppression assay (CCK-8) using small molecular inhibitors against EGFR; assay type: cell-based, human
Description: (§1) Methods: cells in the log-phase growth were plated in 96-well plates with 3000 cells/well. […] The medium were replaced with fresh medium containing 10% CCK-8 reagents and incubated for another 2 h. The OD450 value was then measured.

U87MG EGFRwt = assay: as above; assay type: cell-based, human; conditions: U87MG EGFRwt cells, 72 h with inhibitor, CCK-8 OD450
Description: as §1

Row | SMILES | sensitivity of cell line stably expressing EGFRvA compared with cell line stably expressing EGFR (U87MG EGFRvA; FIG. 7) | IC50 (U87MG EGFRvA; U87MG EGFRvA cells, 72 h with inhibitor, CCK-8 OD450) [µM] | IC50 ratio (EGFRvA/EGFRwt) (U87MG EGFRvA; U87MG EGFRvA versus U87MG EGFRwt) | IC50 (U87MG EGFRwt) [µM]
1 | C#Cc1cccc(Nc2ncnc3cc(OCCOC)c(OCCOC)cc23)c1 [Erlotinib] | lower sensitivity | – | – | –
2 | COc1cc2ncnc(Nc3cccc(Cl)c3)c2cc1OC [AG1478] | – | 4.06 | 4.56 | 0.89

— patent US8703917B2, “Epidermal growth factor receptor variants and pharmaceutical compositions thereof” (Shanghai Cancer Institute, priority 2010, dated 2014)
